Measured values from US8865653B2, “Method of treatment for immunogenic treatment resistant cancer” (Institut Gustave Roussy, priority 2010, dated 2014).

How the values were obtained:
MCA205 cells [1] = test: In vivo anti-tumor vaccination with MitoC / Digoxin treated MCA205 cells; set-up: species or system mice; conditions: 20 μM MitoC
CT26 and MCA cells = test: CRT exposure in single or cotreated cells (MitoC, cardiac glycosides); format: cell-based, mouse
Description: (B) CRT exposure was analysed in the cells that were single or cotreated as indicated by means of CRT surface staining and FACS quantification.

U2OS cells [2] = format: cell-based
Description: The data is depicted as representative images (A) and (B) normalized Bax-GFP granularity values.
The data represents mean±s.e.m. of quadruplicates from a representative experiment. […] 16 h after treatment, cell death was monitored by simultaneous staining with 3,3 dihexyloxacarbocyanine iodide (DiOC6(3)) and propidium iodide (PI), and the percentage of dying (DiOC6(3)^low PI^−, open bars) and dead (DiOC6(3)^low PI^+, closed bars) cells was determined by cytofluorometry.
Cell death was quantified by cytofluorometric analysis using a FACS Vantage (Becton Dickinson, Mountain View, USA) as described previously (REF). Thus, cells were stained with 40 nM 3,3 dihexyloxacarbocyanine iodide (DiOC6(3); Molecular Probes, Eugene, Oreg., USA) for 30 min at 37° C. and concomitantly with 1 μg/ml propidium iodide (PI; Sigma Aldrich) for 30 min at 37° C. to determine the mitochondrial transmembrane potential. Data were statistically evaluated using CellQuest Pro software (Becton Dickinson, Mountain View, USA).

[3] = test system: U2OS cells stably expressing CRT-GFP; test: CRT-GFP redistribution (granularity, nuclear shape) by automated microscopy; ICCB library screen; format: cell-based, human; conditions: for CRT-GFP granularity / CRT exposure in library screen in the presence vs absence of CDDP: ICCB library, 4 h, with CDDP; for CRT-GFP granularity (relocation to peripheral granular distribution): 1 μM MTX, 150 μM CDDP, 300 μM OXP
Description: The data is depicted as mean±s.e.m. of quadruplicates from a representative experiment. (C) Immunofluorescene was conducted on CRT-GFP expressing cells by means of staining with anti-CRT antibody and subsequent confocal image acquisition. (D) CRT has been cloned in frame n-terminal to a HaloTag® sequence followed by a KDEL ER retention signal. (E) The impermeable HaloTag® ligand forms covalent bonds exclusively with surface exposed HaloTag®-CRT fusion protein, whereas intracellular HaloTag®-CRT remains undetected.
Compounds from the ICCB known bioactive compounds library have been tested for their capacity to induce CRT-exposure. […] The cells were incubated for 4 h and were acquired by means of automated microscopy. The data is depicted as dot plots and representative images (B).
After washing with PBS 4 viewfields per well were acquired by means of a BD pathway 855 automated microscope.

U2OS cells [4] = test: Analysis of surface exposed CRT (HaloTag ligand, anti-CRT immune staining)
MCA205 cells [5] = conditions: Martins I et al, Oncogene 2010; cited from earlier work
MCA205 cells [6] = test: In vivo anti-tumor vaccination with treated MCA205 cells (Example 3)
Description: (F) MCA205 cells have been used for tumor vaccination in vivo. […] The mice have been rechallenged after 6 days with living cells and the tumor growth is depicted in the survival plot (n=10).
Tumor growth was evaluated for at least 50 days.

[7] = test system: CT26 (ATG5 or ATG7 knock down, WT); test: Chemotherapy of established autophagy-deficient CT26 tumors ± apyrase inhibitor; format: in vivo, mice
Description: One million CT26 knock down with small interfering RNA specific for ATG5 or ATG7 or controls WT were treated with the anthracyclin mitoxanthrone (MTX) at 8 days post-implantation in one flank of a naïve animal (BALB/C mouse). […] Monitoring of tumor growth was recorded with a caliper (product of perpendicular diameters) and is depicted for 5 mice/group. Statistical analyses were performed with Anova test (Fisher's exact method) with significant results at p<0.05.

[8] = test system: CT26 (siATG5, siATG6, siATG7); test: Prophylactic immunization with autophagy-deficient dying CT26 cells ± apyrase inhibitor; format: in vivo; conditions: anthracycline-treated cells injected s.c., immunocompetent mice
Description: One million CT26 knock down with small interfering RNA specific for ATG5, ATG6 (Beclin 1 BCN1), or ATG7 or controls siCO were treated with the anthracyclin mitoxanthrone (MTX) for 18 hours, washed and inoculated in one flank of a naïve animal (BALB/C mouse). Positive controls are CT26 treated with MTX and negative controls are CT26 treated with PBS. Ten days later, mice were rechallenged with 3× the minimal tumorigenic dose of live CT26 cells on the opposite flank and monitoring of tumor growth was recorded with a caliper (product of perpendicular diameters). The % of tumor free animals are shown in the graph and the number of animals per group is indicated (n=20). Statistical analyses were performed with Anova test (Fisher's exact method) with significant results at p<0.05.
Idem as in FIG. 40 but the dying cells (siCO or siATG7) were admixed (or not) with apyrase inhibitors (AI) (apyrases are enzymes hydrolyzing ATP in the extracellular milieu) and/or suramine (SUR) or oxidized ATP (OXY), both inhibitors of purinergic receptors at the conventional dosing (previously reported). The % of tumor free animals are shown in the graph and the number of animals per group is indicated (n=20). Statistical analyses were performed with Anova test (Fisher's exact method) with significant results at p<0.05.

MCA205 [9] = test: Pro-apoptotic effect on MCA205, DiOC6(3) fluorescence; format: cell-based, mouse; conditions: alone or in combination with anthracyclines (DX, MTX)
Description: (B) The impact of AHR pharmacological inhibitor CH-223191 on pro-apoptotic effect of DX or MTX against MCA205 was measured. A reduction in mitochondrial membrane potential indicated by decreased DiOC6(3) fluorescence was used to show cell apoptosis. The experiment was performed twice with identical results.

MCA205 sarcoma = test: Anthracycline chemotherapy of established MCA205 sarcoma (intratumoral DX); format: in vivo, mice; conditions: CH-223191 daily i.p. for 4 days from day of DX
Description: 0.8 million MCA205 or CT26 or TS/A tumor cells were inoculated subcutaneously near the thigh into C57Bl/6 (H-2^b) or BALB/c (H-2^d) mice. Anthracyclines-based chemotherapy was performed in MCA205 and CT26 models by intratumoral injecting DX (2 mM, […]) when tumors reached the size 25-40 mm^2. Radiotherapy was performed by local X-ray irradiation (10 Gy, RT250, Phillips) at the unshielded tumor area when TS/A tumor reached the size 40-60 mm^2.

AHR = AHR (Homo sapiens, UniProt P35869); conditions: pure antagonist of AHR; cited from earlier work
U2OS cells [10] = test: ATP release assays (quinacrine, luciferin-based); format: cell-based, human; conditions: 16 h post-treatment, intracellular and extracellular ATP
Description: In short, cells were labeled with 1 μM quinacrine in Krebs-Ringer solution (125 mM NaCl, 5 mM KCl, 1 mM MgSO4, 0.7 mM KH2PO4, 2 mM CaCl2, 6 mM glucose and 25 mM Hepes, pH 7.4) for 30 min at 37° C.
After incubation in quinacrine solution (as described above), cells were rinsed and resuspended in PBS containing 1 μg/ml PI. The samples were analyzed by means of a FACS Vantage (Becton Dickinson) and the data was statistically evaluated using the CellQuest Pro software (BD Biosciences).
After cell death induction, extracellular ATP was measured by luciferin-based ENLITEN ATP Assay (Promega, Madison, USA) following the manufacturer's instructions. Intracellular ATP was measured using an ATP Assay kit (Calbiochem, Darmstadt, Germany) based on luciferin-luciferase conversion following the manufacturer's instructions. For assessment of the chemoluminescent signal, the plates were read in a Fluostar luminometer (BMG Labtech).

[11] = test system: CT26 overexpressing LC3-GFP; test: Induction of autophagy in vivo, LC3-GFP redistribution; set-up: species or system mice; conditions: i.v., tumors withdrawn 48 hours post-therapy
Description: After 8 days of tumor implantation (CT26 mouse colon cancer genetically modified to overexpress LC3-GFP in BALB/c immunocompetent mice), oxaliplatin or mitoxanthrone was inoculated systemically (i.v.). Tumors were withdrawn at 48 hours post-therapy and immunofluorescence stainings were performed on frozen sections of tumor tissues to visualize nuclei (in Hoechst blue), and autophagosomes in green (LC3-GFP). […] The lower panel is a graph summarizing enumeration of autophagosomes positive cells in 10 independent sections per tumor and animal (each dot represents one tumor). Statistical analyses were performed with Anova test (Fisher's exact method) with significant results at p<0.05.

eIF2α = test: Immunoblotting of eIF2α / PERK phosphorylation; format: cell-based
Text: (E) The phosphorylation status of eIF2α has been assessed by immunoblotting against the phosphoneoepitope Ser51 of eIF2α by means of a monoclonal antibody. A polyclonal antibody has been used to visualize whole eIF2α protein levels.

EL4 thymoma = test: Chemotherapy and Dendrophilin treatment of established EL4 tumors; format: in vivo, mice; conditions: oxaliplatin 5 mg per kg i.p.
Description: WT or loss-of-function mice were injected in the right flank with 1×10^6 of EL4 or CT26 or MCA205 cells. Mice were then randomly assigned into treatment groups of 4-6 mice each. […] Two and/or four days after chemo treatment, mice were treated with Dendrophilin or LPS (2 μg in 100 μl NaCl per mouse i.v or i.t). […] Tumor growths were monitored every 3-4 days using a caliper.

MCA205 [12] = test: Tumor vaccination with MTX-treated MCA205 and rechallenge; format: in vivo; conditions: s.c. injection of MTX treated MCA205 cells, WT mice (not athymic nude mice)
Description: MCA205 cells were treated with 2 μM MTX for 18 hrs, washed thoroughly and injected into left flank subcutaneously at 0.3 million/mouse. PBS was used as control. Mice were rechallenged with 5×10^4 live MCA205 cells in the right flank 7 days later. Tumor growth was monitored every 2-3 days.

U2OS cells [13] = test: US Drug library screen: CRT-GFP, HMGB1-GFP, quinacrine; conditions: 1 μM, 4 h / 24 h / 16 h
[14] = MTX at 8 days post-implantation

Chain of AHR (P35869 11-848, species assumed): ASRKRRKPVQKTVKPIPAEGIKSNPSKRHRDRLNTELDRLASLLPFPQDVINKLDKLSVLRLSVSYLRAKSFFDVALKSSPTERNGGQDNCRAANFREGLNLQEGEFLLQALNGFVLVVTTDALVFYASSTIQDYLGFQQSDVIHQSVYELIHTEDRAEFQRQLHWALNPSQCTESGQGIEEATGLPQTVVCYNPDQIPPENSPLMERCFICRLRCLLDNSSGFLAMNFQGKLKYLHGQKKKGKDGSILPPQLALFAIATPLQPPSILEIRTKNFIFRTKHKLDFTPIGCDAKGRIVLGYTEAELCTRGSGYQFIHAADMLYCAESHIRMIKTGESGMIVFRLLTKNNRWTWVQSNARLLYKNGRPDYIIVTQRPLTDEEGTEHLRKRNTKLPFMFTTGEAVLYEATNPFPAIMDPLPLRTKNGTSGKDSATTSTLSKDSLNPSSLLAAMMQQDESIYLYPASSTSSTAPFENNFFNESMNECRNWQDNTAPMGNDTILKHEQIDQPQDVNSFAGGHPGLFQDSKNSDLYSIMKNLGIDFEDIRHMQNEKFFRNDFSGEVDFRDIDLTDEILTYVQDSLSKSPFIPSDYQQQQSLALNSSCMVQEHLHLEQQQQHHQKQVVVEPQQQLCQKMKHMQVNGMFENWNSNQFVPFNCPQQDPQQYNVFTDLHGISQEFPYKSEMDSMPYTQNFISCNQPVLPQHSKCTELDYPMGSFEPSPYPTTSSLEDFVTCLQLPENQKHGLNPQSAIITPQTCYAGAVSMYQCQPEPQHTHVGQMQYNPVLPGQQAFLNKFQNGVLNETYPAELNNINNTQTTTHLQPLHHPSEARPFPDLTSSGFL

CO[C@@]12[C@H](COC(N)=O)C3=C(C(=O)C(C)=C(N)C3=O)N1C[C@@H]1N[C@@H]12 [MitoC, mitomycin C]
vaccinating effect, MitoC alone (MCA205 cells [1]): failed to confer any vaccinating effect
CRT exposure, MitoC by its own (CT26 and MCA cells): incapable of exposing CRT

C/C=C(/C)C(=O)O[C@H]1C(C)=C2[C@H]([C@@H]1OC(=O)CCCCCCC)[C@@](C)(OC(C)=O)C[C@H](OC(=O)CCC)[C@@]1(O)[C@H]2OC(=O)[C@@]1(C)O [THAPS, thapsigargin]
cytotoxic effects (U2OS cells [2]): exhibited no major cytotoxic effects
effect on toxicity of CDDP (U2OS cells [2]): did not increase the toxicity of CDDP
CRT-GFP granularity / CRT exposure in library screen in the presence vs absence of CDDP [3]: particularly efficient in inducing CRT-GFP granularity in the presence (but not in the absence) of CDDP
CRT-GFP granularity / CRT exposure in library screen in the presence vs absence of CDDP ([3]; listed as thapsigargin): the sole agent (out of 450 compounds) to induce CRT exposure in the presence of cisplatin but not in the absence of cisplatin
CRT-GFP granularity, CRT-HaloTag exposure, native CRT exposure, THAPS alone (U2OS cells [4]; in the absence of CDDP): comparably inefficient
CRT-GFP granularity, CRT-HaloTag exposure, native CRT exposure, THAPS with CDDP (U2OS cells [4]; in the presence of CDDP): highly efficient in the presence of CDDP
immunogenic cell death when combined with cisplatin (MCA205 cells [5]): could induce immunogenic cell death when combined with cisplatin
anticancer immune response, vaccine of dying cells generated with CDDP combined with THAPS (MCA205 cells [6]; MCA205, rechallenge with live cells): elicited an effective anticancer immune response in vivo

CCN(CC)c1ncnc2c1ncn2C1OC(COP(=O)(O)OP(=O)(O)C(Br)(Br)P(=O)(O)O)C(O)C1O [ARL67156, 6-N,N-Diethyl-D-beta-gamma-dibromomethylene adenosine triphosphate]
response of autophagy-deficient tumours to anthracycline chemotherapy with intratumoural apyrase inhibitor ([7]; tumours established for 8 days): defect is again overcome
immunogenicity of autophagy-deficient dying tumour cells with co-injected apyrase inhibitor [8]: defect in immunogenicity can be restored

Cc1ccccc1N=Nc1ccc(NC(=O)c2ccnn2C)c(C)c1 [CH-223191, 2-methyl-2H-pyrazole-3-carboxylic acid (2-methyl-4-o-tolylazo-phenyl)-amide]
cell-autonomous effects on the tumor cells (MCA205 [9]): no cell-autonomous effects on the tumor cells
effect on efficacy of DX on established cancers in vivo (MCA205 sarcoma): markedly reduced the efficacy of DX
concentration up to which no AHR agonist actions (AHR): > 100 µM

O=C1[O][Pt]2([NH][C@@H]3CCCC[C@H]3[NH]2)[O]C1=O [OXP, oxaliplatin]
ATP release (U2OS cells [10]): induced ATP release
IC50 (U2OS cells [2]; short-term experiments, loss of the mitochondrial transmembrane potential ΔΨm, read-out: IC50, imminent cell death): ~600 µM
mitochondrial perturbations (ΔΨm dissipation, Bax-GFP relocation) (U2OS cells [2]; used at their IC50): induced similar mitochondrial perturbations
redistribution of LC3-GFP in autophagosomes in tumors [11]: Redistribution of LC3-GFP in autophagosomes can be visualized post-therapy
CRT-GFP granularity (relocation to peripheral granular distribution) [3]: only observed after treatment of the cells with MTX or OXP
eIF2α phosphorylation on serine 51 (eIF2α; phospho-neoepitope-specific antibody): much more efficient than CDDP
activating phosphorylation of PERK (eIF2α; shortly after treatment): detectable shortly after treatment with OXP
surface exposure of CRT-HaloTag (U2OS cells [4]; cell-impermeable HaloTag ligand, microscopy and cytofluorometry): unless they were treated with immunogenic cell death inducers such as OXP
surface immunofluorescence staining of CRT (U2OS cells [4]; non-permeabilized CRT-GFP cells): actually extruded CRT
protective anticancer immune response after vaccination with drug-treated MCA205 cells (MCA205 cells [6]; s.c. injection, rechallenge with live tumor cells): readily induce such a tumor-protective response
antitumor effects of chemotherapy alone (EL4 thymoma): only mild effects

O=C1c2c(O)ccc(O)c2C(=O)c2c(NCCNCCO)ccc(NCCNCCO)c21 [MTX, mitoxantrone]
protection against rechallenge with live MCA205 tumor cells (MCA205 [12]): could protect WT mice
redistribution of LC3-GFP in autophagosomes in tumors [11]: Redistribution of LC3-GFP in autophagosomes can be visualized post-therapy
growth of ATG5 and ATG7 deficient tumors under MTX [7, 14]: not controlled by MTX therapy
growth of CT26 WT tumors under MTX [7, 14]: significantly respond
CRT-GFP granularity (relocation to peripheral granular distribution) [3]: only observed after treatment of the cells with MTX or OXP
rank in screen for exposing CRT and emitting HMGB1 and ATP (U2OS cells [13]): most potent in exposing CRT, and emitting HMGB1 and ATP
